pIC50: −log10 of the molar value.
Tested on: Plasmodium berghei
Assay: Luciferase/luciferin-expressing antifolate-resistant parasites were used to infect a culture of HepG2 cells that were pre-incubated with compounds. Infected hepatocytes emit light due to the luciferase reaction. Assay results are presented as the percent inhibition of light emission compared to control. […]
Assay type: functional
Settings: sporozoite; for IC90: read-out: LUCIFERASE INFECTION ASSAY - IC90
[1] = read-out: LUCIFERASE INFECTION ASSAY - IC50

SMILES	IC90	pIC50 [1]	other results
O=C(Nc1nc2ccccn2c1C(=O)NC1CCCC1)c1ccc(F)c(F)c1	3.18 µM	–	pIC50 (FFLUC_HILL_SLOPE 26.5, FFLUC_R_SQUARED 0.0302, HEPG2TOX_HILL_SLOPE 1.05, HEPG2TOX_R_SQUARED 0.954, PBLUC_HILL_SLOPE 2.57, PBLUC_R_SQUARED 0.624, read-out: LUCIFERASE INFECTION ASSAY - IC50): 5.87
COc1ccc(-c2cnc3cnc(-c4cnn(Cc5ccccc5)c4)cn23)cc1	> 8.65 µM	–	pIC50 (PBLUC_HILL_SLOPE 2.08, PBLUC_R_SQUARED 0.432, read-out: LUCIFERASE INFECTION ASSAY - IC50): 5.11
Cc1cc(C)nc(NNC(=S)NC(=O)C23CC4CC(CC(C4)C2)C3)n1	3.62 µM	–	pIC50 (HEPG2TOX_HILL_SLOPE 2.34, HEPG2TOX_R_SQUARED 0.811, PBLUC_HILL_SLOPE 12, PBLUC_R_SQUARED 0.36, read-out: LUCIFERASE INFECTION ASSAY - IC50): 5.52
O=C(c1ccc2nc[nH]c2c1)N1CCc2nc(NCc3cccc(Oc4ccccc4)c3)ncc2C1	> 6.92 µM	–	pIC50 (HEPG2TOX_HILL_SLOPE 1.36, HEPG2TOX_R_SQUARED 0.938, PBLUC_HILL_SLOPE 1.78, PBLUC_R_SQUARED 0.322, read-out: LUCIFERASE INFECTION ASSAY - IC50): 5.62
CC(C)(C)NC(=S)Nc1cc(C(F)(F)F)cc(C(F)(F)F)c1	> 9.58 µM	–	pIC50 (PBLUC_HILL_SLOPE 27.4, PBLUC_R_SQUARED 0.229, read-out: LUCIFERASE INFECTION ASSAY - IC50): 5.02
CCn1c2ccccc2c2cc(N)ccc21	> 10 µM	< 5.00	–
CCn1c(SCc2nc3ccccc3c(=O)n2CC(N)=O)nnc1C1CC1	> 10 µM	< 5.00	–
Fc1cccc(-c2cnc3sc(NCCc4ccncc4)nn23)c1	> 9.72 µM	–	pIC50 (HEPG2TOX_HILL_SLOPE 0.66, HEPG2TOX_R_SQUARED 0.128, read-out: LUCIFERASE INFECTION ASSAY - IC50): < 5.01
Cc1cccc(C2CC(=O)Nc3[nH]c(-c4ccccc4)nc(=O)c32)c1 (configuration not stated)	> 9.96 µM	–	pIC50 (PBLUC_HILL_SLOPE 13.4, PBLUC_R_SQUARED 0.0843, read-out: LUCIFERASE INFECTION ASSAY - IC50): 5.02
COc1ccc2nc3cc(Cl)ccc3c(N(C)CCc3ccc(OC)c(OC)c3)c2c1	0.33 µM	–	pIC50 (PBLUC_HILL_SLOPE 4.42, PBLUC_R_SQUARED 0.447, read-out: LUCIFERASE INFECTION ASSAY - IC50): 6.70
FC(F)(F)c1cccc(Nc2nnnc3ccccc23)c1	3.71 µM	–	pIC50 (PBLUC_HILL_SLOPE 1.72, PBLUC_R_SQUARED 0.746, read-out: LUCIFERASE INFECTION ASSAY - IC50): 5.99
COc1ccc(CCN=C(S)NC2CCN(Cc3ccccc3)CC2)cc1	> 10 µM	–	pIC50 (HEPG2TOX_HILL_SLOPE 2.55, HEPG2TOX_R_SQUARED 0.6, read-out: LUCIFERASE INFECTION ASSAY - IC50): < 5.00
N#CC(c1nc(-c2ccc(Cl)cc2)cs1)N1CCc2ccccc2C1 (configuration not stated)	> 10 µM	< 5.00	–
O=[N+]([O-])c1cc(C(F)(F)F)ccc1Sc1nnc(-c2cc(Cl)cc(Cl)c2)[nH]1	7.2 µM	–	pIC50 (HEPG2TOX_HILL_SLOPE 11.8, HEPG2TOX_R_SQUARED 0.697, PBLUC_HILL_SLOPE 13.2, PBLUC_R_SQUARED 0.063, read-out: LUCIFERASE INFECTION ASSAY - IC50): 5.22
Cc1cc(C2N=C(N)Nc3nc4ccccc4n32)c(C)n1-c1ccccc1Cl (configuration not stated)	7.59 µM	–	pIC50 (PBLUC_HILL_SLOPE 3.33, 1.30, PBLUC_R_SQUARED 0.920, 0.833, read-out: LUCIFERASE INFECTION ASSAY - IC50): 5.41
c1ccc2c3c(ccc2c1)CCc1ccc2ccccc2c1-3	> 11.8 µM	–	pIC50 (FFLUC_HILL_SLOPE 12.1, FFLUC_R_SQUARED 0.622, read-out: LUCIFERASE INFECTION ASSAY - IC50): < 4.93
COc1ccccc1NC(=O)C(=Cc1ccc(N2CCCC2)c([N+](=O)[O-])c1)C(=O)Nc1ccccc1OC	> 10 µM	< 5.00	–
Cc1onc(-c2ccc(Cl)cc2Cl)c1-c1csc(Nc2cc(C(F)(F)F)cc(C(F)(F)F)c2)n1	2.73 µM	–	pIC50 (HEPG2TOX_HILL_SLOPE 2.62, HEPG2TOX_R_SQUARED 0.945, PBLUC_HILL_SLOPE 2.66, PBLUC_R_SQUARED 0.706, read-out: LUCIFERASE INFECTION ASSAY - IC50): 5.92
CCC(CO)NC(=S)Nc1cc(C(F)(F)F)cc(C(F)(F)F)c1 (configuration not stated)	> 9.16 µM	< 5.04	–
Cc1oc(C(C)(C)C)cc1C(=O)Nc1ccc([N+](=O)[O-])cc1	> 10.9 µM	< 4.96	–
Cc1ccc(-c2nnc3c(C(F)(F)F)nc4ccccc4n23)cc1	> 10.1 µM	–	pIC50 (HEPG2TOX_HILL_SLOPE 6.88, HEPG2TOX_R_SQUARED 0.907, PBLUC_HILL_SLOPE 7.21, PBLUC_R_SQUARED 0.0351, read-out: LUCIFERASE INFECTION ASSAY - IC50): 5.07
COc1ccc(Cl)c(Nc2nc(-c3c(-c4ccc(Cl)cc4Cl)noc3C)cs2)c1	> 7.07 µM	–	pIC50 (HEPG2TOX_HILL_SLOPE 6.31, HEPG2TOX_R_SQUARED 0.301, PBLUC_HILL_SLOPE 9.51, PBLUC_R_SQUARED 0.295, read-out: LUCIFERASE INFECTION ASSAY - IC50): 5.20
COc1ccc(Cl)cc1NC(=O)N1CCC(Cc2ccccc2)CC1	> 9.2 µM	< 5.04	–

SMILES	IC90	pIC50 [1]	other results
COc1ccc(-n2ncc(N3CCC(=O)CC3)c(Cl)c2=O)cc1	> 9.89 µM	< 5.00	–
COc1cccc(CN2CCC2(C)C(=O)Nc2ccccc2Cc2ccccc2)c1OC (configuration not stated)	> 7.66 µM	< 5.12	–
COc1c(Cl)cc([N+](=O)[O-])c(OC)c1C(=O)NC(=O)Nc1cc(Cl)cc(Cl)c1	> 7.36 µM	–	pIC50 (FFLUC_HILL_SLOPE 1.87, FFLUC_R_SQUARED 0.625, PBLUC_HILL_SLOPE 21.1, PBLUC_R_SQUARED 0.112, read-out: LUCIFERASE INFECTION ASSAY - IC50): 5.16
Cc1cc(C)n(CCCNC(=O)Cc2c(C)nc3ncnn3c2C)n1	> 10 µM	< 5.00	–
NS(=O)(=O)c1ccc2c(c1)CCN2Cc1ccc(Cl)cc1	> 2 µM	< 5.70	–
CCCNC(=O)/C(=C\c1cccc(Br)c1)c1nc2ccccc2[nH]1	9.54 µM	–	pIC50 (HEPG2TOX_HILL_SLOPE 11.6, HEPG2TOX_R_SQUARED 0.535, PBLUC_HILL_SLOPE 4.15, PBLUC_R_SQUARED 0.775, read-out: LUCIFERASE INFECTION ASSAY - IC50): 5.25
CN(C)c1ccc(CNCC2(c3ccnc(-c4ccc(Cl)cc4)c3)CC2)cc1	> 10 µM	–	pIC50 (PBLUC_HILL_SLOPE 2.32, PBLUC_R_SQUARED 0.214, read-out: LUCIFERASE INFECTION ASSAY - IC50): 5.20
COc1cccc(-c2nccc3n[nH]c(-c4ccc(OC)cc4C)c23)c1	> 10 µM	5.35	–
CCCCOCCCNC(=O)c1cc2ccccc2cc1OC	> 10 µM	–	pIC50 (PBLUC_HILL_SLOPE 2.53, PBLUC_R_SQUARED 0.451, read-out: LUCIFERASE INFECTION ASSAY - IC50): 5.18
Cc1cccc(C2NC(=O)NC3=C2C(=O)N(Cc2ccc(F)cc2)C3)c1 (configuration not stated)	> 10 µM	< 5.00	–
FC(F)(F)c1cccc(NC(S)=Nc2ccc(Cl)c(Cl)c2)c1	> 9.04 µM	< 5.04	–
CC(=O)N(c1nc(/C=C/C(=O)c2ccc(F)c(F)c2)cs1)c1c(C)cccc1C	> 10 µM	< 5.00	–
CCSc1ccc(-c2cc(NC=O)c3ncc(-c4cccc(C(=O)NCCN(C)C)c4)n3c2)cc1	> 6.77 µM	< 5.17	–
CCc1nn2c(=O)cc(CSc3nccc(C)n3)[nH]c2c1-c1ccc(F)cc1	> 8.34 µM	–	pIC50 (HEPG2TOX_HILL_SLOPE 0.32, HEPG2TOX_R_SQUARED 0.345, PBLUC_HILL_SLOPE 2.6, PBLUC_R_SQUARED 0.743, read-out: LUCIFERASE INFECTION ASSAY - IC50): 5.33
O=C(c1nn(-c2ccccc2)c(=O)c2ccccc12)N1CCN(C2CCS(=O)(=O)C2)CC1 (configuration not stated)	> 10 µM	< 5.00	–
COc1ccc(-c2cc(NC=O)c3ncc(-c4ccc(OC)c(OC)c4)n3c2)c(OC)c1	0.0326 µM	–	pIC50 (HEPG2TOX_HILL_SLOPE 0.668, HEPG2TOX_R_SQUARED 0.811, PBLUC_HILL_SLOPE 48.6, PBLUC_R_SQUARED 0.635, read-out: LUCIFERASE INFECTION ASSAY - IC50): 7.51
O=C(CSc1nnc(-c2c[nH]c3ccccc23)n1C1CC1)NC1CCN(Cc2ccccc2)C1 (configuration not stated)	8.82 µM	–	pIC50 (PBLUC_HILL_SLOPE 3.03, PBLUC_R_SQUARED 0.422, read-out: LUCIFERASE INFECTION ASSAY - IC50): 5.37
Cc1ccc(C(=O)NN(C)c2nc3ccccc3nc2C(F)(F)F)cc1	8.54 µM	–	pIC50 (HEPG2TOX_HILL_SLOPE 2.8, HEPG2TOX_R_SQUARED 0.955, PBLUC_HILL_SLOPE 3.11, PBLUC_R_SQUARED 0.656, read-out: LUCIFERASE INFECTION ASSAY - IC50): 5.38
Cc1ccc(-n2c(C)cc(C(=O)CSc3nc(N)cc(N)n3)c2C)cc1C	4.39 µM	–	pIC50 (HEPG2TOX_HILL_SLOPE 0.381, HEPG2TOX_R_SQUARED 0.896, PBLUC_HILL_SLOPE 2.47, PBLUC_R_SQUARED 0.602, read-out: LUCIFERASE INFECTION ASSAY - IC50): 5.74
COc1ccc(CCNC(=O)COC(=O)c2sc(C)nc2C)cc1	> 10 µM	< 5.00	–
CSc1[nH]nc(-c2cc(C(C)(C)C)oc2C)c1C#N	> 12 µM	–	pIC50 (PBLUC_HILL_SLOPE 2.91, PBLUC_R_SQUARED 0.01, read-out: LUCIFERASE INFECTION ASSAY - IC50): 5.06
COc1ccccc1-c1nc(-c2ccc(CCCNC(C)=O)cc2)cs1	> 10 µM	–	pIC50 (PBLUC_HILL_SLOPE 1.19, PBLUC_R_SQUARED 0.431, read-out: LUCIFERASE INFECTION ASSAY - IC50): 5.27
CC(C)c1cc(=O)oc2cc(OS(=O)(=O)c3cc(C(N)=O)n(C)c3)ccc12	> 10 µM	< 5.00	–

Source: ChEMBL document CHEMBL4483862, “Open-source discovery of chemical leads for next-generation chemoprotective antimalarials” (2018)
